The text below walks through data of the supplement of paper PMC10307832.

Holding throughout (assay): relative viability (nuclei count vs DMSO), 5 days (fraction); higher = more cells survive
Compound in the assay “XMD14-99 + Phenformin”: CN1CCN(CC1)C2=CC(=C(C=C2)NC3=NC(=C(S3)C(=O)C4=C(C=CC=C4Cl)Cl)N)OC [XMD14-99] + N=C(N)NC(=N)NCCc1ccccc1 [Phenformin] (partner 250 µM)
The gist of the method:
(§1)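 For relative viability, nuclei counts in treated wells were divided by those in vehicle wells. Lung cancer cell lines had been pin-tool dosed in 1536-well plates the day after seeding and cultured for 5 days, then fixed and stained in one step (final 0.05% Triton X-100, 1% formaldehyde, 1 ug/ml Hoechst) and imaged at 4×. Doses were one drug alone or a fixed anchor-drug dose plus five library-drug doses (not always all listed) in √10 steps, and values are duplicate-plate medians.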

Compound in the assay “XMD14-99 + Luminespib”: CN1CCN(CC1)C2=CC(=C(C=C2)NC3=NC(=C(S3)C(=O)C4=C(C=CC=C4Cl)Cl)N)OC [XMD14-99] + CCNC(=O)c1noc(-c2cc(C(C)C)c(O)cc2O)c1-c1ccc(CN2CCOCC2)cc1 [Luminespib] (partner 0.01 µM)
The method in brief:
as §1

Compound in the assay “XMD14-99 + Decitabine”: CN1CCN(CC1)C2=CC(=C(C=C2)NC3=NC(=C(S3)C(=O)C4=C(C=CC=C4Cl)Cl)N)OC [XMD14-99] + Nc1ncn([C@H]2C[C@H](O)[C@@H](CO)O2)c(=O)n1 [Decitabine] (partner 2 µM)
The method in brief: as §1

Compound in the assay “AZD1208 + Linsitinib”: N[C@@H]1CCCN(c2c(/C=C3\SC(=O)NC3=O)cccc2-c2ccccc2)C1 [AZD1208] + C[C@]1(O)C[C@@H](c2nc(-c3ccc4ccc(-c5ccccc5)nc4c3)c3c(N)nccn32)C1 [Linsitinib] (partner 1 µM)
The method in brief: as §1

As to NCI-H2342, the relative viability with XMD14-99 + Phenformin (first compound 0.08 µM) came out at 0.675; with XMD14-99 + Phenformin (first compound 0.8 µM), 0.782; in the assay with XMD14-99 + Phenformin (first compound 2.53 µM), 0.68; in the assay with XMD14-99 + Phenformin (first compound 8 µM) it was 0.513; in the assay with XMD14-99 + Luminespib (first compound 0.08 µM) it was 0.778; with XMD14-99 + Luminespib (first compound 0.8 µM), 0.725. The relative viability was found to be 0.787 with XMD14-99 + Luminespib (first compound 2.53 µM); 0.745 with XMD14-99 + Luminespib (first compound 8 µM); 0.724 with XMD14-99 + Decitabine (first compound 0.08 µM); 0.739 with XMD14-99 + Decitabine (first compound 0.8 µM); 0.765 in the assay with XMD14-99 + Decitabine (first compound 2.53 µM); 0.638 in the assay with XMD14-99 + Decitabine (first compound 8 µM).
Regarding SK-MES-1, the relative viability in the assay with XMD14-99 + Phenformin (first compound 0.08 µM) was 0.644; with XMD14-99 + Phenformin (first compound 0.8 µM), 0.647; with XMD14-99 + Phenformin (first compound 2.53 µM), 0.575; in the assay with XMD14-99 + Phenformin (first compound 8 µM) it was 0.475; in the assay with XMD14-99 + Luminespib (first compound 0.08 µM) it was 0.786; with XMD14-99 + Luminespib (first compound 0.8 µM) it was 0.73. In addition, the relative viability worked out at 0.729 with XMD14-99 + Luminespib (first compound 2.53 µM); 0.566 in the assay with XMD14-99 + Luminespib (first compound 8 µM); 1.01 in the assay with AZD1208 + Linsitinib (first compound 0.08 µM); 1.02 in the assay with AZD1208 + Linsitinib (first compound 0.253 µM); 1.06 with AZD1208 + Linsitinib (first compound 0.8 µM); 1.04 with AZD1208 + Linsitinib (first compound 2.53 µM). The relative viability in the assay with AZD1208 + Linsitinib (first compound 8 µM) was 0.969; with XMD14-99 + Decitabine (first compound 0.08 µM), 0.421; with XMD14-99 + Decitabine (first compound 0.8 µM), 0.389; with XMD14-99 + Decitabine (first compound 2.53 µM) it was 0.451; with XMD14-99 + Decitabine (first compound 8 µM), 0.336.
Regarding NCI-H1993, the relative viability with XMD14-99 + Phenformin (first compound 0.08 µM) came to 0.467; in the assay with XMD14-99 + Phenformin (first compound 0.8 µM), 0.506; with XMD14-99 + Phenformin (first compound 2.53 µM) it was 0.447; in the assay with XMD14-99 + Phenformin (first compound 8 µM), 0.436; in the assay with XMD14-99 + Luminespib (first compound 0.08 µM), 0.849; with XMD14-99 + Luminespib (first compound 0.8 µM), 0.761. For the same cell line, the relative viability turned out to be 0.782 in the assay with XMD14-99 + Luminespib (first compound 2.53 µM); 0.632 with XMD14-99 + Luminespib (first compound 8 µM); 0.722 in the assay with AZD1208 + Linsitinib (first compound 0.253 µM); 0.731 in the assay with AZD1208 + Linsitinib (first compound 0.8 µM); 0.739 with AZD1208 + Linsitinib (first compound 2.53 µM); 0.654 in the assay with AZD1208 + Linsitinib (first compound 8 µM). In addition, the relative viability in the assay with XMD14-99 + Decitabine (first compound 0.08 µM) is 0.561; with XMD14-99 + Decitabine (first compound 0.8 µM), 0.603; in the assay with XMD14-99 + Decitabine (first compound 2.53 µM), 0.587; with XMD14-99 + Decitabine (first compound 8 µM), 0.622.
HCC-366: the relative viability was found to be 0.647 with XMD14-99 + Phenformin (first compound 0.08 µM); 0.636 in the assay with XMD14-99 + Phenformin (first compound 0.8 µM); 0.564 in the assay with XMD14-99 + Phenformin (first compound 2.53 µM); 0.554 with XMD14-99 + Phenformin (first compound 8 µM); 0.626 in the assay with AZD1208 + Linsitinib (first compound 0.08 µM); 0.588 with AZD1208 + Linsitinib (first compound 0.253 µM). The relative viability with AZD1208 + Linsitinib (first compound 0.8 µM) was found to be 0.5; in the assay with AZD1208 + Linsitinib (first compound 2.53 µM) it was 0.558; in the assay with AZD1208 + Linsitinib (first compound 8 µM) it was 0.439; with XMD14-99 + Decitabine (first compound 0.08 µM), 0.32; in the assay with XMD14-99 + Decitabine (first compound 0.8 µM), 0.363; with XMD14-99 + Decitabine (first compound 2.53 µM), 0.347. In the assay with XMD14-99 + Decitabine (first compound 8 µM), the relative viability is 0.291.
Take 201T: the relative viability in the assay with XMD14-99 + Phenformin (first compound 0.08 µM) was determined as 0.449; in the assay with XMD14-99 + Phenformin (first compound 0.8 µM), 0.441; in the assay with XMD14-99 + Phenformin (first compound 2.53 µM), 0.422; with XMD14-99 + Phenformin (first compound 8 µM), 0.41; with XMD14-99 + Luminespib (first compound 0.08 µM), 1; with XMD14-99 + Luminespib (first compound 0.8 µM), 1.01. Besides, the relative viability in the assay with XMD14-99 + Luminespib (first compound 2.53 µM) amounted to 0.993; with XMD14-99 + Luminespib (first compound 8 µM), 0.829; with AZD1208 + Linsitinib (first compound 0.08 µM) it was 1.02; in the assay with AZD1208 + Linsitinib (first compound 0.253 µM), 1.05; with AZD1208 + Linsitinib (first compound 0.8 µM) it was 0.989; with AZD1208 + Linsitinib (first compound 2.53 µM), 1.01. Moreover, the relative viability with AZD1208 + Linsitinib (first compound 8 µM) was 0.979; in the assay with XMD14-99 + Decitabine (first compound 0.08 µM) it was 0.852; in the assay with XMD14-99 + Decitabine (first compound 0.8 µM), 0.833; in the assay with XMD14-99 + Decitabine (first compound 2.53 µM) it was 0.833; with XMD14-99 + Decitabine (first compound 8 µM), 0.741.
